Reference: ChEMBL document CHEMBL1201862, “PubChem BioAssay data set” (2004)
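Compound exposure: 48 hours, 5 concentrations, 96-well plates. GI50 is the concentration that inhibits growth by half.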 Calls of active or inactive are those of the source. Rule as the data show it: active = GI50 up to about 1.1 µM and inactive = higher.

Assays:
Assay in all cases: DTP human tumour cell line panel, 48 h
[1] = system: 786-0
[2] = system: A498
[3] = system: CCRF-CEM
[4] = system: EKVX
[5] = system: IGROV-1
[6] = system: K562
[7] = system: LOX IMVI
[8] = system: OVCAR-4
[9] = system: OVCAR-8
[10] = system: RXF 393
[11] = system: SK-MEL-28
[12] = system: SK-MEL-5
[13] = system: SK-OV-3
[14] = system: SNB-19
[15] = system: TK-10
[16] = system: U-251
[17] = system: UACC-257
[18] = system: UACC-62
[19] = system: UO-31

Measured: GI50

CC(=O)c1ccc(NC(=O)/C(Cc2ccccn2)=N/NC(=O)C[N+](C)(C)C)cc1
inactive: [1] > 100 µM | [2] > 100 µM | [3] > 100 µM | [4] > 100 µM | [5] > 100 µM | [6] > 100 µM | [7] > 100 µM | [8] > 100 µM | [9] > 100 µM | [10] > 100 µM | [11] > 100 µM | [12] > 100 µM | [13] > 100 µM | [14] > 100 µM | [15] > 100 µM | [16] > 100 µM | [17] > 100 µM | [18] > 100 µM | [19] > 100 µM

CCc1cccc(C(C)C)c1NC(=O)/C(=N\NC(N)=O)C(C(=O)OC)c1cnc2ccccc2n1 (stereo unspecified)
inactive: [1] 60.8 µM | [2] > 100 µM | [3] 39 µM | [4] > 100 µM | [5] 40.7 µM | [6] 37.2 µM | [7] 34.8 µM | [8] 87.7 µM | [9] 54.1 µM | [10] 50 µM | [11] 55.8 µM | [12] 18.7 µM | [13] > 100 µM | [14] 51.3 µM | [15] > 100 µM | [16] 40.2 µM | [17] 32.1 µM | [18] 26 µM | [19] > 100 µM

C=CCn1c2ccccc2[n+]2cc([N+](=O)[O-])ccc12
inactive: [1] 46.2 µM | [2] 19.5 µM | [3] 20.9 µM | [4] 37 µM | [5] 21.3 µM | [6] 13 µM | [7] 30.5 µM | [8] 77.4 µM | [9] 27 µM | [10] 67.3 µM | [11] 34.2 µM | [12] 22 µM | [13] 47.2 µM | [14] 66.2 µM | [15] 61.7 µM | [16] 31.9 µM | [17] 21.3 µM | [18] 28.6 µM | [19] 48.4 µM

[N-]=[N+]=NC1C2CC3C4CC5CC3[C@H](C2)C(C5)C41 (stereo partly specified)
inactive: [1] > 100 µM | [2] > 100 µM | [3] > 100 µM | [4] > 100 µM | [5] > 100 µM | [6] > 100 µM | [7] > 100 µM | [8] > 100 µM | [9] > 100 µM | [10] > 100 µM | [11] > 100 µM | [12] > 100 µM | [13] > 100 µM | [14] > 100 µM | [15] > 100 µM | [16] > 100 µM | [17] > 100 µM | [18] > 100 µM | [19] > 100 µM

Clc1ccc(Cc2nc3ccccc3s2)c(Cl)c1
inactive: [1] 14.6 µM | [2] 17.2 µM | [3] 5.21 µM | [4] 23.6 µM | [5] 14.8 µM | [6] 14.8 µM | [7] 16.7 µM | [8] 13.2 µM | [9] 19.8 µM | [10] 20.9 µM | [11] 18.3 µM | [12] 17.5 µM | [13] 28.2 µM | [14] 24.3 µM | [15] 22.7 µM | [17] 17.5 µM | [18] 14.1 µM | [19] 16.4 µM

O=C(Cc1nc2ccccc2s1)Nc1cccc(C(F)(F)F)c1
inactive: [1] 14.2 µM | [2] 5.3 µM | [3] 1.81 µM | [4] 22.2 µM | [5] 13 µM | [6] 9.16 µM | [7] 13.1 µM | [8] 16.2 µM | [9] 18.1 µM | [10] 18.2 µM | [11] 15 µM | [12] 16.5 µM | [13] 29.5 µM | [14] 16.9 µM | [15] 21.2 µM | [17] 14.4 µM | [18] 12.6 µM | [19] 14.5 µM

COC(=O)C(C(=O)C(=O)Nc1ccc([N+](=O)[O-])cc1)c1nc2cc(C)c(C)cc2nc1O (stereo unspecified)
inactive: [1] > 100 µM | [2] > 100 µM | [3] > 100 µM | [4] > 100 µM | [5] > 100 µM | [6] > 100 µM | [7] > 100 µM | [8] > 100 µM | [10] > 100 µM | [11] > 100 µM | [12] > 100 µM | [13] > 100 µM | [14] > 100 µM | [15] > 100 µM | [16] > 100 µM | [17] > 100 µM | [18] > 100 µM | [19] > 100 µM

O=C(/C=C(\O)C(=O)O)/C=C(\O)c1ccccc1
inactive: [1] > 100 µM | [2] > 4.65 µM | [3] > 4.65 µM | [4] > 4.65 µM | [5] > 4.65 µM | [6] > 4.65 µM | [7] > 4.65 µM | [8] > 4.65 µM | [9] > 100 µM | [10] > 100 µM | [13] > 4.65 µM | [14] > 4.65 µM | [15] > 4.65 µM | [16] > 4.65 µM | [17] > 4.65 µM | [18] > 4.65 µM

FC(F)(F)P1C2C=CC(CC2)C1(F)F (stereo unspecified)
inactive: [1] > 100 µM | [2] > 100 µM | [3] > 100 µM | [4] > 100 µM | [5] > 100 µM | [6] > 100 µM | [7] > 100 µM | [8] > 100 µM | [9] > 100 µM | [10] > 100 µM | [11] > 100 µM | [12] > 100 µM | [13] > 100 µM | [14] > 100 µM | [15] > 100 µM | [16] > 100 µM | [17] > 100 µM | [18] > 100 µM | [19] > 100 µM

Cc1nn(C)c(=O)c2nn(-c3ccccc3)c(C)c12
inactive: [1] > 100 µM | [2] > 100 µM | [3] > 100 µM | [4] > 100 µM | [5] > 100 µM | [6] > 100 µM | [7] > 100 µM | [8] > 100 µM | [9] > 100 µM | [10] > 100 µM | [11] > 100 µM | [12] > 100 µM | [13] > 100 µM | [14] > 100 µM | [15] > 100 µM | [16] > 100 µM | [17] > 100 µM | [18] > 100 µM | [19] > 100 µM

CCOC(=O)c1ccc(/C(C)=N/NC(N)=S)cc1
inactive: [1] > 100 µM | [2] > 100 µM | [3] > 100 µM | [4] 2.74 µM | [5] > 100 µM | [6] > 100 µM | [7] > 100 µM | [8] > 100 µM | [9] > 100 µM | [10] > 100 µM | [11] > 100 µM | [12] > 100 µM | [13] > 100 µM | [14] > 100 µM | [15] > 100 µM | [16] > 100 µM | [18] > 100 µM
